Measured values: paper PMC5915154, “Aloe-emodin as drug candidate for cancer therapy” (Oncotarget, 2018)

How the values were obtained:
[1] = test system: CCRF-CEM cells; test: Detection of reactive oxygen species (H2DCFH-DA, flow cytometry); format: cell-based, human
Protocol: 2′,7′-Dichlorofluorescin diacetate (H2DCFH-DA, Sigma-Aldrich) is a cell-permeable non-fluorescent probe used to detect cellular ROS levels. In the presence of ROS, the compound is de-esterified intracellularly and converts into the highly fluorescent 2′,7′-dichlorofluorescein upon oxidation. Thus, it can be measured by flow cytometry. CCRF-CEM cells were re-suspended in PBS and incubated for 30 min withH2DCFH-DA at a concentration of 2 μM. After washing with PBS, the cells were treated with DMSO as negative control, H2O2 and doxorubicin as positive controls or varying concentrations of Aloe-emodin (0.5-, 1-, 2- and 4-fold IC50) for 1 h. The results were assessed by a BD Accuri™ C6 flow cytometer (Becton Dickinson) using FL-1 the channel (488 nm excitation). For each sample, 10^4 cells were counted. The protocol has been recently reported by us.

[2] = test system: HEK293 human embryonic kidney cells; test: Resazurin reduction assay, HEK293; format: cell-based; conditions: 72 h
Source text: (§1) The cell lines used in the present work, their origins and maintenance conditions were previously reported. In brief, drug-sensitive CCRF-CEM and multidrug resistant P-glycoprotein-over-expressing CEM/ADR5000 leukemia cells, MDA-MB-231-pcDNA3 breast cancer cells and their transfectant subline MDA-MB-231-BCRP clone 23, HCT116 (p53^+/+) colon cancer cells and its knockout clone HCT116 (p53^-/-), U87.MG glioblastoma multiform cells and their transfectant subline U87.MGΔEGFR as well as HEK293 human embryonic kidney cells transfected with or without a cDNA for ABCB5 were used. The human peripheral mononuclear cells (PMNC) were isolated from fresh blood samples of a healthy donor by using Histopaque® (Sigma-Aldrich, Taufkirchen, Germany).
(§2) Resazurin reduction assay was conducted to test the cytotoxicity of the compounds. This assay is based on the reduction of resazurin to resorufin by viable cells. […] Briefly, aliquots of 0.5×10^4 adherent cells which were allowed to attach overnight and 1×10^4 suspension cells per well were seeded in 96-well-plates with or without the addition of varying concentrations of the test substance to get a total volume of 200 μL/well. After 72 h incubation and addition of resazurin (Sigma-Aldrich) for 4 h, staining was measured by an Infinite M2000 ProTM plate reader (Tecan, Germany) using an excitation wavelength of 544 nm and an emission wavelength of 590 nm. […]

[3] = test system: drug-sensitive CCRF-CEM leukemia cells; test: Resazurin reduction assay, CCRF-CEM; format: cell-based; conditions: Homo sapiens, 72 h
Source text: as §1
Resazurin reduction assay was conducted to test the cytotoxicity of the compounds. This assay is based on the reduction of resazurin to resorufin by viable cells. […] Briefly, aliquots of 0.5×10^4 adherent cells which were allowed to attach overnight and 1×10^4 suspension cells per well were seeded in 96-well-plates with or without the addition of varying concentrations of the test substance to get a total volume of 200 μL/well. After 72 h incubation and addition of resazurin (Sigma-Aldrich) for 4 h, staining was measured by an Infinite M2000 ProTM plate reader (Tecan, Germany) using an excitation wavelength of 544 nm and an emission wavelength of 590 nm. Each assay was independently performed for at least three times, with six parallel replicates each. The protocol has been recently reported. Fifty percent inhibition concentrations (IC50) represent the drug concentrations required to inhibit 50% of cell proliferation, which were fitted with nonlinear regression using GraphPad® Prism7.

[4] = test system: mRNA expression (DUSP6, HHEX, MCMDC2, CRCP) in CCRF-CEM cells; test: Microarray-based mRNA expression profiling; format: cell-based, human; conditions: CCRF-CEM treated with IC50 for 48 h vs DMSO; FC: fold change
Protocol: We performed microarray hybridizations to find clues on the possible mechanisms of action of Aloe-emodin. CCRF-CEM cells were treated with the IC50 of Aloe-emodin or DMSO for 48 h. Using Chipster software, 1712 genes were deregulated upon Aloe-emodin treatment in comparison with DMSO treatment as control. These genes were subsequently subjected to Ingenuity Pathway Analysis (IPA) to obtain profiles of possibly affected signaling pathways. The most pronounced molecular and cellular functions identified by IPA were: cell death and survival, cellular growth and proliferation, cellular development, gene expression, cellular function and maintenance (Figure 4A).
Total RNA was isolated by InviTrap Spin Universal RNA Mini kit (Stratec Molecular, Berlin, Germany) according to the manufacturer’s instructions. The quality control of total RNA, probe labeling, hybridization, scanning and data analysis was performed in the Genomics and Proteomics Core Facility at the German Cancer Research Center (DKFZ, Heidelberg, Germany). Details have been previously described. The Chipster software was used to filter the set of differentially expressed genes obtained from microarray hybridization (http://chipster.csc.fi/) with a p value lower than 0.05. These filtered genes with fold-changes of more than 1-fold were selected for Ingenuity Pathways Analysis Software (http://www.ingenuity.com/ Ingenuity Systems, Redwood City, CA, USA) to obtain profiles of genetic networks and signaling pathways. The protocol has been recently reported by us.

[5] = test system: HCT116 (p53+/+) colon cancer cells; test: Resazurin reduction assay, HCT116 (p53+/+); format: cell-based; conditions: Homo sapiens, HCT-116, 72 h
Source text: as §1, §2

[6] = test system: HCT116 (p53-/-) knockout colon cancer cells; test: Resazurin reduction assay, HCT116 (p53-/-); format: cell-based, human
Source text: as §1, §2

IC50 [3]: 9.87 µM
IC50 [5]: 16.5 µM
IC50 ([6]; Homo sapiens, HCT-116, HCT116(p53-/-), resazurin assay, 72 h): 11.2 µM
Compound: O=C1c2cccc(O)c2C(=O)c2c(O)cc(CO)cc21 [Aloe-emodin]
ROS production, fold changes ([1]; 0.5-, 1-, 2- or 4-fold IC50, 1 h, dose-dependent): ≥ 1.5 fold
ROS generation compared with positive controls ([1]; 1 h, vs doxorubicin (1 μM) or H2O2 (250 μM)): even higher ROS generation than doxorubicin
IC50 [2]: 16.9 µM
Microarray data (FC), CRCP [4]: -2.219 FC
Microarray data (FC), DUSP6 [4]: 2.403 FC
Microarray data (FC), HHEX [4]: 2.321 FC
Microarray data (FC), MCMDC2 [4]: -2.227 FC
degree of resistance (collateral sensitivity) ([6]; HCT116 (p53-/-) knockout cells vs HCT116 (p53+/+)): 0.68 fold
